Results taken from patent US20230293540A1, “ANTICOAGULANT COMPOUNDS, METHODS AND DEVICES FOR OPHTHALMIC USE” (Elixir Medical Corporation, priority 2020, published 2023).

Tests used:
porcine coronary artery = assay: Histopathology scores and QCA of anticoagulant eluting stents in porcine coronary artery model (Examples 2, 3); assay type: in vivo
Method: The mean score was calculated and reported. […] The smaller the fibrin score, the better efficacy.

[1] = test system: Calcium-reconstituted sheep blood; assay: Activated clotting time (ACT) in calcium-reconstituted sheep blood; assay type: biochemical; settings: individual drug at 0.6 ng/mg
Method: The activated clotting time (ACT) evaluation of anticoagulants was performed in Calcium-reconstituted sheep blood and recorded employing the Hemochron® Response device. […] A target amount of drug solution was then added into the test tube. […] The tube was gently shaken before being inserted into the Hemochron Response detector. The ACT read out was recorded and reported. The ACT of the control blood in the absence of any drug as first determined to establish a baseline. Then ACT was determined in the presence of different concentrations of the drug as a single component. Selected drug combinations, were then tested to evaluate for potential synergy in action between the two drugs.

[2] = In vivo drug released from / remaining on stent (HPLC); set-up: species or system porcine
Excerpt: The stented artery was cut longitudinally with surgical scissors. The stents were separated from the tissue.

[3] = Drug concentration in PEG 300 supernatant and precipitation in phosphate buffered saline (HPLC); assay type: physicochemical; settings: after 24 hours in DPBS
Method: The vial was sonicated with 40° C. heat for 30 minutes and then was placed in the 40° C. oven overnight for 20 hours. […] The crystal fine particles were verified by following. 100 µL of the clear PEG 300 solution was added to a vial with 4.3 mL of Dulbecco’s phosphate buffered saline to mimic the ophthalmic vitreous humor. […] The solution stands overnight for 24 hours at room temperature. […] The solution was then centrifuged, and the supernatant was analyzed by HPLC. […] The solution was sonicated 10 minutes until clear. […] The crystal fine particles were verified by following. […] The vial was sonicated with 40° C. heat for 30 minutes and then was placed in the 40° C. oven overnight for 20 hours.

[4] = Example 3 stent, within 28 days

Molecule: Dalteparin
- Inhibition of fibrin formation compared to bare metal control stents (porcine coronary artery; 7 days): not more effective
- Inhibition of smooth muscle cell proliferation (LLL) compared to bare metal control stents (porcine coronary artery; 7 days): not more effective

Molecule: CC1CNc2c(cccc2S(=O)(=O)N[C@@H](CCCNC(=N)N)C(=O)N2CC[C@@H](C)C[C@@H]2C(=O)O)C1 (stereo partly shown) [Argatroban]
- Inhibition of fibrin formation compared to bare metal control stents (porcine coronary artery; 7 days): not more effective
- ACT [1]: 301

Molecule: O=C(NC[C@H]1CN(c2ccc(N3CCOCC3=O)cc2)C(=O)O1)c1ccc(Cl)s1 [Rivaroxaban]
- Inhibition of fibrin formation compared to bare metal control stents (porcine coronary artery; 7 days): more effective
- Inhibition of fibrin formation compared to control (porcine coronary artery; Example 3, fast release formulation, 7 days and/or 28 days): more effective
- Rivaroxaban amount released from stent ([2]; Example 3 stent, in combination with m-TOR inhibitor formulation, within 7 days): about 68.1 µg
- Percent of rivaroxaban released from stent [2, 4]: about 92.5%
- Rivaroxaban dose released from stent [2, 4]: about 92.5 µg
- Cumulative Percent Release of drug by day 7, Rivaroxaban ([2]; Rivaroxaban/Argatroban combination stent): about 70.9%
- Cumulative Percent Release of drug by day 7 ([2]; single-drug stent): about 99.5%

Molecule: COc1ccc(-n2nc(C(N)=O)c3c2C(=O)N(c2ccc(N4CCCCC4=O)cc2)CC3)cc1 [Apixaban]
- Fraction precipitated out to crystalline form [3]: 33%
- ACT [1]: 522
